Assay results as given in patent US7259136B2, “Compositions and methods for treating peripheral vascular disease” (Amylin Pharmaceuticals, Inc., priority 1999, dated 2007).
Where no end group is shown, it is not given here.

Legend:
pancreas = details: cited from earlier work
[1] = test system: Cardiac Muscle Ischemia and Reperfusion; assay: LAD coronary artery occlusion (25 min) and reperfusion (2 h) in anesthetized rats; type: in vivo, Wistar rats
Procedure: Wistar rats were anesthetized with thiopentone sodium. The left anterior descending (LAD) coronary artery was occluded. After 25 minutes of occlusion, reperfusion was allowed for 2 hours. This animal model has been described previously. Zacharowski, et al. […] Br. J. Pharmacol. 128, 945–952.
GLP-1 (1.5 microgram/kg/min) was infused into anesthetized rats (n=10), commencing 10 minutes prior to reperfusion and continuing throughout the 2-hour reperfusion. Controls were sham operated with no occlusion (n=7), LAD occlusion+reperfusion+administration of saline (n=12), and LAD occlusion and reperfusion with vehicle (10 mM sodium acetate, 5.05% D-mannitol, pH 4.5, 1.5 mL/kg/hour; n=10).
Following reperfusion, the coronary artery was reoccluded, and Evans Blue dye (4 ml, 2% w/v) was injected into the left ventricle of the heart via a right carotid artery cannula. Evans Blue stains the perfused myocardium, while the occluded vascular bed remains uncolored. Animals were euthanized by anesthetic overdose and the hearts were removed for examination. Hearts were sectioned and the right ventricular wall was removed. The area at risk (pink) was separated from the non-ischemic tissue (blue). The area at risk (pink) was then cut into smaller pieces and stained with p-nitroblue tetrazolium (NBT; 0.5 mg/ml) for 20 min. at 37° C. In the presence of intact dehydrogenase enzyme systems (viable myocardium), NBT forms a dark blue compound. Areas of necrosis lack the enzyme and remain unstained. Tissue was separated according to staining and weighed to determine infarct size as a percentage of the area at risk.

[2] = test system: Cardiac Muscle Ischemia and Reperfusion; assay: Left circumflex coronary occlusion (10 min) and reperfusion in dogs; type: in vivo
Procedure: Two dogs were studied at baseline before, during, and for 6 hours after a 10-minute complete left circumflex coronary (LCx) occlusion. Each dog underwent occlusion/reperfusion in the presence and absence of GLP-1 infusion for […], beginning 1 minute prior to reperfusion.

Substance | stimulation of production or release of insulin from the pancreas (pancreas) | infarct size as a percentage of the area at risk ([1]; GLP-1 1.5 microgram/kg/min infusion from 10 min prior to reperfusion throughout 2-hour reperfusion, n=10) | reduction in infarct size compared with the vehicle group ([1]; GLP-1 1.5 microgram/kg/min infusion, p<0.05) | hemodynamics ([1]; GLP-1 infusion) | stunning period ([2]; dogs, GLP-1 during reperfusion after subcritical ischemia) | recovery of ventricular wall regional dysfunction ([2]; two dogs, GLP-1 infusion for 24 hours beginning 1 minute prior to reperfusion, after 10 minutes of coronary artery occlusion)
GLP-1(9-36)amide: DPP IV inactivation product of GLP-1(7-36)amide, SEQ ID NO:6 (EGTFTSDVSSYLEGQAAKEFIAWLVKGR-NH2) | do not stimulate production or release of insulin |  |  |  |  | 
GLP-1(9-37): DPP IV inactivation product of GLP-1(7-37), SEQ ID NO:5 (EGTFTSDVSSYLEGQAAKEFIAWLVKGRG; mammalian) | do not stimulate production or release of insulin |  |  |  |  | 
glucagon-like peptide-1 [GLP-1] |  | 31+/−4 % of the area at risk | approximately 33% | significantly improved hemodynamics | significantly reduced the stunning period | enhanced the recovery of ventricular wall regional dysfunction
